The record followed here is patent US5691372A, “Oxygenated-Heterocycle containing sulfonamide inhibitors of aspartyl protease” (Vertex Pharmaceuticals Incorporated, priority 1995, dated 1997).

In one assay the target is HIV-1 protease (Human immunodeficiency virus type 1 group M subtype B, UniProt P04585). Description: inhibition constants against HIV-1 protease (method of Pennington et al.). The class given is biochemical. From the text: We have measured the inhibition constants of each compound against HIV-1 protease using the method described essentially by M. W. Pennington et al., Peptides 1990, Gimet, E. and D. Andrew, Eds., Escom; Leiden, Netherlands (1990).
We measured the inhibition constants of the compounds listed in Table II against HIV-1 protease using the above-cited method of Pennington et al.

For assay [1], the system named is HIVIIIb in CCRM-CEM cells. Description: anti-viral potency in CCRM-CEM cells acutely infected with HIVIIIb, extracellular p24 antigen (method of Meek et al.). It is filed as cell-based, HIV-1; CD4+ human T-cell lymphoma cells. The settings on record: Human immunodeficiency virus 1. The method, then: Compounds of formula I were tested for their antiviral potency in several virological assays. In the first assay, the compounds were added as a solution in dimethylsulfoxide (DMSO) to a test cell culture of CCRM-CEM cells, a strain of CD4^+ human T-cell lymphoma cells, previously acutely infected with […] using standard protocols (see Meek, T. D. et al., "Inhibition of HIV-1 protease in infected T-lymphocytes by synthetic peptide analogues", Nature, 343, p. 90 (1990). Preferred compounds are those which are able to inhibit 90% of viral infectivity at a concentration of 1 μM or less. More preferred compounds are those which are able to inhibit 90% of viral infectivity at a concentration of 100 nM or less. The effect of the compounds on inhibiting the replication of the virus was measured by determining the HIV extracellular p24 antigen concentration using a commercial enzyme immunoassay (obtained from Coulter Corporation, Hialeah, Fla.). […] Ki and IC90 values are expressed in nM. The designation "ND" is used where a given compound was not tested.

As for `Nc1cccc(S(=O)(=O)N(CC2CCCC2)C[C@@H](O)[C@H](Cc2ccccc2)NC(=O)OC2COC3OCCCC23)c1` (single isomer, unassigned) [Compound 7], on HIV-1 protease, the Ki (in general, a measure of affinity in units of concentration, obtained from inhibition or displacement) is < 0.1 nM.
Same read-out and setting: the result for `Nc1cccc(S(=O)(=O)N(CC2CCCC2)C[C@@H](O)[C@H](Cc2ccccc2)NC(=O)OC2COC3OCCCC23)c1` (single isomer, unassigned) [Compound 8] reads < 0.1 nM.
With `CC(C)CN(C[C@@H](O)[C@H](Cc1ccccc1)NC(=O)OC1COC2OCCCC12)S(=O)(=O)c1cccc(N)c1` (single isomer, unassigned) [Compound 9], affinity at HIV-1 protease was put at a Ki of 0.1 nM.
On to `CC(C)CN(C[C@@H](O)[C@H](Cc1ccccc1)NC(=O)OC1COC2OCCCC12)S(=O)(=O)c1cccc(N)c1` (single isomer, unassigned) [Compound 10], for which the Ki at HIV-1 protease is < 0.1 nM.
In the case of `COc1ccc(S(=O)(=O)N(CC2CCCC2)C[C@@H](O)[C@H](Cc2ccccc2)NC(=O)OC2COCOC2)cc1` [Compound 1, N-Cyclopentylmethyl-N-((2 syn, 3S)-2-hydroxy-4-phenyl-3-(1,3-dioxan-5-yl-oxycarbonylamino))butyl-4-methoxy-benzenesulfonamide], the Ki on HIV-1 protease is < 0.1 nM. Besides, the IC90 (in general, the point of the concentration-response curve where the effect stands at 90%) in assay [1] was 5 nM.
`COc1ccc(S(=O)(=O)N(CC2CCCC2)C[C@@H](O)[C@H](Cc2ccccc2)NC(=O)OCC2COCO2)cc1` (stereo partly drawn) [Compound 2, N-Cyclopentylmethyl-N-((2 syn, 3S)-2-hydroxy-4-phenyl-3-(1,3-dioxolan-4-yl-methoxycarbonylamino))butyl-4-methoxy-benzenesulfonamide] displayed a Ki at HIV-1 protease of 0.3 nM. In other words, the sub-nanomolar range.
The compound `Nc1ccc(S(=O)(=O)N(CC2CCCC2)C[C@@H](O)[C@H](Cc2ccccc2)NC(=O)OC2COCOC2)cc1` [Compound 3, 4-Amino-N-cyclopentylmethyl-N-((2 syn, 3S)-2-hydroxy-4-phenyl-3-(1,3-dioxan-5-yl-oxycarbonylamino))butyl-benzenesulfonamide] had a Ki on HIV-1 protease of 0.1 nM. Besides, the IC90 in assay [1] was determined as 4 nM.
Consider `CC(C)CN(C[C@@H](O)[C@H](Cc1ccccc1)NC(=O)OC1COCOC1)S(=O)(=O)c1ccc(N)cc1` [Compound 4, 4-Amino-N-((2 syn, 3S)-2-hydroxy-4-phenyl-3-1,3-dioxan-5-yl-oxycarbonylamino)butyl-N-isobutyl-benzenesulfonamide], for which, at HIV-1 protease, the Ki was 0.3 nM. The compound also showed an IC90 in assay [1] of 12 nM.
On to `CC(C)CN(C[C@@H](O)[C@H](Cc1ccccc1)NC(=O)OC1COCOC1)S(=O)(=O)c1cccc(N)c1` [Compound 5, 3-Amino-N-((2 syn, 3S)-2-hydroxy-4-phenyl-3-1,3-dioxan-5-yl-oxycarbonylamino)butyl-N-isobutyl-benzenesulfonamide], for which the affinity at HIV-1 protease, expressed as Ki, was 0.15 nM. In assay [1], the IC90 turned out to be 7 nM.
Take `Nc1cccc(S(=O)(=O)N(CC2CCCC2)C[C@@H](O)[C@H](Cc2ccccc2)NC(=O)OC2COCOC2)c1` [Compound 6, 3-Amino-N-cyclopentylmethyl-N-((2 syn, 3S)-2-hydroxy-4-phenyl-3-(1,3-dioxan-5-yl-oxycarbonylamino))butyl-benzenesulfonamide]: at HIV-1 protease, the Ki was < 0.1 nM. In assay [1], it took 5 nM to reach the 90% level (IC90).
In turn, `CC(=O)Nc1ccc(S(=O)(=O)N(C)C[C@@H](O)[C@H](Cc2ccccc2)NC(=O)OC2COC3OCCCC23)cc1` (stereo partly drawn) [Compound 11, 4-Acetamido-N-((2 syn, 3S)-2-hydroxy-4-phenyl-3-tetrahydropyrano-[2,3-b]tetrahydrofuran-4-yloxycarbonylamino)butyl-N-methyl-benzenesulfonamide] yielded a Ki on HIV-1 protease of 160 nM.
`CC(C)C[C@H](NC(=O)OC1COC2OCCCC12)[C@H](O)CN(CC1CCCCC1)S(=O)(=O)c1cccc(N)c1` (stereo partly shown) [Compound 12] registered a Ki at HIV-1 protease of 1.5 nM.
`CC1(OC(=O)N[C@@H](Cc2ccccc2)[C@H](O)CN(CC2CCCC2)S(=O)(=O)c2cccc(N)c2)CCOC1` (stereo partly drawn) [Compound 15, 3-Amino-N-cyclopentylmethyl-N-((2 syn, 3S)-2-hydroxy-4-phenyl-3-(3-methyltetrahydrofuran-3-yl)oxycarbonylamino)butyl-benzenesulfonamide]: the affinity at HIV-1 protease, expressed as Ki, was 0.4 nM.
`CC(C)CN(C[C@@H](O)[C@H](Cc1ccccc1)NC(=O)OC1(C)CCOC1)S(=O)(=O)c1cccc(N)c1` (stereo partly drawn) [Compound 16, 3-Amino-N-((2 syn, 3S)-2-hydroxy-4-phenyl-3-(3-methyltetrahydrofuran-3-yl)oxycarbonylamino)butyl-N-isobutyl-benzenesulfonamide] came in with a Ki at HIV-1 protease of 1.5 nM.
